Data on 2 compounds can be found in ChEMBL document CHEMBL1147295, “Plant antimutagens, 6. Intricatin and intricatinol, new antimutagenic homoisoflavonoids from Hoffmanosseggia intricata” (J Nat Prod, 1989).

Each structure is given as a SMILES string.

The test system of data set [1] is Salmonella typhimurium. The data set can be described thus: Antimutagenic activity in Salmonella Typhimurium T-100 assessed as inhibition of ethyl methanesulfonate-induced mutation at 75 ug/plate. The format is functional, Salmonella enterica subsp. enterica serovar Typhimurium.
Data set [2] relates to Salmonella typhimurium. The data set can be described thus: Antimutagenic activity in Salmonella Typhimurium T-98 assessed as inhibition of 2-aminoanthracene-induced mutation at 75 ug/plate. The format is functional, Salmonella enterica subsp. enterica serovar Typhimurium.
For data set [3], the system named is Salmonella typhimurium. The data set can be described thus: Antimutagenic activity in Salmonella Typhimurium T-98 assessed as inhibition of 2-aminoanthracene-induced mutation at 300 ug/plate. The format is functional, Salmonella enterica subsp. enterica serovar Typhimurium.
Data set [4] has as its system Salmonella typhimurium. The data set can be described thus: Antimutagenic activity in Salmonella Typhimurium T-98 assessed as inhibition of acetylaminofluorene-induced mutation at 300 ug/plate. The format is functional, Salmonella enterica subsp. enterica serovar Typhimurium.
The test system of data set [5] is Salmonella typhimurium. In words: Antimutagenic activity in Salmonella Typhimurium T-100 assessed as inhibition of ethyl methanesulfonate-induced mutation at 300 ug/plate. The format is functional, Salmonella enterica subsp. enterica serovar Typhimurium.
Data set [6] deals with Salmonella typhimurium. In words: Antimutagenic activity in Salmonella Typhimurium T-98 assessed as inhibition of acetylaminofluorene-induced mutation at 37.5 ug/plate. The format is functional, Salmonella enterica subsp. enterica serovar Typhimurium.
Data set [7] has as its system Salmonella typhimurium. In words: Antimutagenic activity in Salmonella Typhimurium T-100 assessed as inhibition of ethyl methanesulfonate-induced mutation at 37.5 ug/plate. The format is functional, Salmonella enterica subsp. enterica serovar Typhimurium.
The test system of data set [8] is Salmonella typhimurium. In words: Antimutagenic activity in Salmonella Typhimurium T-100 assessed as inhibition of ethyl methanesulfonate-induced mutation at 150 ug/plate. The format is functional, Salmonella enterica subsp. enterica serovar Typhimurium.
Data set [9] concerns Salmonella typhimurium. In words: Antimutagenic activity in Salmonella Typhimurium T-98 assessed as inhibition of acetylaminofluorene-induced mutation at 75 ug/plate. The format is functional, Salmonella enterica subsp. enterica serovar Typhimurium.
Data set [10] has as its system Salmonella typhimurium. The data set can be described thus: Antimutagenic activity in Salmonella Typhimurium T-98 assessed as inhibition of 2-aminoanthracene-induced mutation at 37.5 ug/plate. The format is functional, Salmonella enterica subsp. enterica serovar Typhimurium.
Data set [11] deals with Salmonella typhimurium. The data set can be described thus: Toxicity to Salmonella Typhimurium at 0.6 mg/plate. The format is organism-based, Salmonella enterica subsp. enterica serovar Typhimurium. Particulars: in vivo.
The test system of data set [12] is Salmonella typhimurium. The data set can be described thus: Toxicity to Salmonella Typhimurium at 0.3 mg/plate. The format is organism-based, Salmonella enterica subsp. enterica serovar Typhimurium. The note with it: in vivo.
Data set [13] has as its system Salmonella typhimurium. The data set can be described thus: Antimutagenic activity in Salmonella Typhimurium T-98 assessed as inhibition of 2-aminoanthracene-induced mutation at 150 ug/plate. The format is functional, Salmonella enterica subsp. enterica serovar Typhimurium.
The subject of data set [14] is Salmonella typhimurium. The data set can be described thus: Antimutagenic activity in Salmonella Typhimurium T-98 assessed as inhibition of acetylaminofluorene-induced mutation at 150 ug/plate. The format is functional, Salmonella enterica subsp. enterica serovar Typhimurium.

As for `COc1ccc(/C=C2\COc3c(ccc(O)c3O)C2=O)cc1` [INTRICATINOL], the “inhibition (INH)” value in data set [1] worked out at 74%; in [2], 36%; in [3], 87%; in data set [4], 70%; in [5], 74%; in data set [6], 26%. For the same compound, the “inhibition (INH)” value is listed as 30% in data set [7]; 82% in data set [8]; 48% in data set [9]; 8% in [10]; 57% in data set [13]; 54% in data set [14]. In addition, the Activity entry in data set [11] and in data set [12] was “Non-toxic” throughout.
`COc1ccc(/C=C2\COc3c(ccc(OC)c3O)C2=O)cc1` [INTRICATIN]: the “inhibition (INH)” value in data set [1] worked out at 4%; in [2], 92%; in data set [3], 62%; in [4] it was 7%; in data set [5], 45%; in data set [6], 8%. Also, the “inhibition (INH)” value in data set [7] turned out to be 9%; in data set [8] it was 27%; in data set [9], 0%; in [10] it was 70%; in data set [13], 84%; in [14], 0%. Besides, the Activity entry in data set [11] and in data set [12] was “Non-toxic” each time.
